Read-outs that look alike come from different tables or passages of the source.
Tests used:
[1] = tested on: healthy volunteers (two ex-smokers and one non-smoker); details: in vivo
[2] = from cigarettes containing 6 to 11 mg of nicotine; cited from earlier work
[3] = tested on: smokers; details: nicotine containing droplets delivered to the alveolar region; cited from earlier work

SMILES	Adverse effects ([1]; pH 2.9)	Comment (sensory perceptions and effects) ([1]; pH 3)	Adverse effects ([1]; pH 3.2)	Comment (sensory perceptions and effects) ([1]; pH 3.2)	Presence/Intensity of “buzz” ([1]; pH 3.2)	nicotine the smoker typically absorbs [2]	craving for cigarettes [3]
CN1CCCC1c1cccnc1.O=C(O)C(O)C(O)C(=O)O (stereo not shown) [Nicotine Bitartrate, Nicotine bitartrate]	Slight	No taste, buzz	Slight	No taste, buzz	None	–	–
CN1CCC[C@H]1c1cccnc1 [nicotine, S-3-(1-methyl-2-pyrrolidinyl)pyridine]	–	–	–	–	–	1 to 3 mg	very rapid and sustained reduction of craving for cigarettes

— patent publication US20140261474A1, “METHODS FOR INHALATION OF SMOKE-FREE NICOTINE” (priority 2013, published 2014)
